Six molecules from ChEMBL document CHEMBL5584285, “Advancements in Protein Degradation for Cancer Therapy” (ACS Med Chem Lett, 2024) can be followed below.

For one experiment, the target named is GTPase KRas (Homo sapiens, UniProt P01116, G12V). In words: Induction of KRAS G12V mutant degradation in human SW1990 cells incubated for 24 hrs. The format is cell-based.
Experiment [1] in a line: Binding affinity to 6His-tagged KRAS G12V mutant /GST-tagged RAF1 (unknown origin) incubated for 60 mins by fluorescence based microplate reader assay. Details: species or system Homo sapiens.

Chain of GTPase KRas (P01116 whole entry G12V): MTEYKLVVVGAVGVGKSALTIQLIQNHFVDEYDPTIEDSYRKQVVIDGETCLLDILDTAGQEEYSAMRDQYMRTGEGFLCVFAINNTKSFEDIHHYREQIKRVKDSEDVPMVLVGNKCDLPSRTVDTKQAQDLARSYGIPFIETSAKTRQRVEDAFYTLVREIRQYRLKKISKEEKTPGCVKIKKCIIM

What is called DC50 is the concentration at which degradation of the target reaches its halfway point. Low readings indicate degradation at low concentration, high ones degradation only at high concentration. By IC50 is commonly meant the concentration that gives 50% inhibition. A low value points to higher potency. For the molecule `CCc1c(F)ccc2cc(O)cc(-c3ncc4c(N5CCC[C@@](C)(O)C5)nc(OCC5(CN6CCC7(CC6)CC(N6CCN(c8ccc9c(c8)CN([C@H]8CCC(=O)NC8=O)C9=O)CC6)C7)CC5)nc4c3F)c12`, at GTPase KRas, the half-maximal degradation concentration (DC50) was at most 1 nM. In addition, in experiment [1], the concentration for half-maximal inhibition (IC50) is at most 20 nM.

For the molecule `CCc1c(F)ccc2cc(O)cc(-c3ncc4c(N5CCC[C@@](C)(O)C5)nc(OCC5(CN6CCC(C)(CN7CC8(CCN(c9ccc%10c(c9)CN([C@H]9CCC(=O)NC9=O)C%10=O)CC8)C7)CC6)CC5)nc4c3F)c12`, on GTPase KRas, the DC50 is at most 1 nM. Besides, the IC50 in experiment [1] is at most 20 nM.

In the case of `CCc1c(F)ccc2cc(O)cc(-c3ncc4c(N5CCC[C@]6(CCO6)C5)nc(OCC5(CN6CCC(CN7CCN(c8ccc9c(c8)CN([C@H]8CCC(=O)NC8=O)C9=O)CC7)CC6)CC5)nc4c3F)c12`, at GTPase KRas, the DC50 is 1 nM. This molecule also gave an IC50 in experiment [1] of 20 nM.

With `CCc1c(F)ccc2cc(O)cc(-c3ncc4c(N5CCC[C@@](C)(O)C5)nc(OCC5(CN6CC(N7CCC(N8CCN(c9ccc%10c(c9)CN([C@H]9CCC(=O)NC9=O)C%10=O)CC8)CC7)C6)CC5)nc4c3F)c12`, the DC50 on GTPase KRas was at most 1 nM. Further, the 50% inhibitory concentration (IC50) in experiment [1] is at most 20 nM.

As to `CCc1c(F)ccc2cc(O)cc(-c3ncc4c(N5CCC[C@@](C)(O)C5)nc(OCC5(CN6CCC(OC7CCN(C8CCN(c9ccc%10c(c9)CN(C9CCC(=O)NC9=O)C%10=O)CC8)CC7)CC6)CC5)nc4c3F)c12` (some centres not stated), the DC50 on GTPase KRas was at most 1 nM. In experiment [1], the IC50 is at most 20 nM.

The molecule `CCc1cccc2cc(O)cc(-c3ncc4c(N5CCC[C@@](C)(O)C5)nc(OCC5(CN6CCC(OC7CCN(c8ccc9c(c8)CN(C8CCC(=O)NC8=O)C9=O)CC7)CC6)CC5)nc4c3F)c12` (some centres not stated) displayed a DC50 on GTPase KRas of at most 1 nM. For the same molecule, the IC50 in experiment [1] is 20 nM.
